Data from ChEMBL document CHEMBL1201862, “PubChem BioAssay data set” (2004).
Activity calls are given as the source filed them.

Tests used:
[1] = biological target: T1, Carboxy-terminal domain RNA polymerase II polypeptide A small phosphatase 1 (Homo sapiens, UniProt Q9GZU7); assay: CTDSP1 inhibitors, concentration-response, biochemical, absorbance readout, ultra-high-throughput screen actives (AID 540297); type: functional
T1 sequence (Q9GZU7 whole entry): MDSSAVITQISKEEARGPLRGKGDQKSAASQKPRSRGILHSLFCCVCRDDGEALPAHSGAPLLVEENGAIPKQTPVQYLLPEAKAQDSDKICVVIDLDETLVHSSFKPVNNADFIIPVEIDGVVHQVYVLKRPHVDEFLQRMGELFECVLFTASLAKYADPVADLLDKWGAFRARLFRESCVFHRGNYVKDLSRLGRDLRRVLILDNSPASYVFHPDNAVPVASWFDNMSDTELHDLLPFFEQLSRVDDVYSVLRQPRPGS

Caspase-6 = biological target: T2, Caspase-6 (Homo sapiens, UniProt P55212); assay: inhibition of CASP6 peptide cleavage – biochemical, VEID-R110 fluorescence, cherry-pick, dose response (AID 720632)
T2 sequence (P55212 whole entry): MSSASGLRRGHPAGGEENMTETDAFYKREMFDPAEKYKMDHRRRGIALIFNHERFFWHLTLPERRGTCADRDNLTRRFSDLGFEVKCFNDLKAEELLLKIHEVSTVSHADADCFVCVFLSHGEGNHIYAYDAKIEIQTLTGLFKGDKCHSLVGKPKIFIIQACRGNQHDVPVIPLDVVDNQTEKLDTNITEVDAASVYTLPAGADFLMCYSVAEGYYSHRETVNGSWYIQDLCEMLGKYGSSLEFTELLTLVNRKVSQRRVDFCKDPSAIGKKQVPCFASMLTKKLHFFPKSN

Caspase-7 = Caspase-7 (Homo sapiens, UniProt P55210); assay: caspase-7 enzyme inhibition, selectivity check – biochemical, DEVD-R110 fluorescence, cherry-pick, selectivity assay for caspase-6 inhibitor project, dose response (AID 743295); type: functional
[2] = biological target: Induced myeloid leukemia cell differentiation protein Mcl-1 (Homo sapiens, UniProt Q07820); type: functional
[3] = biological target: T3, Oxysterols receptor LXR-beta (Homo sapiens, UniProt P55055); type: functional, cell-based;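 note: Cell-based luminescence dose-response assay of agonist activity at LXR, run as a confirmatory counterscreen to a daf-12 agonist screen; HEK293 cells with Gal4-LXR fusion and GAL4-driven luciferase reporter; agonist potency from rising luciferase signal of a Gal4-LXR reporter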
T3 sequence (P55055 whole entry): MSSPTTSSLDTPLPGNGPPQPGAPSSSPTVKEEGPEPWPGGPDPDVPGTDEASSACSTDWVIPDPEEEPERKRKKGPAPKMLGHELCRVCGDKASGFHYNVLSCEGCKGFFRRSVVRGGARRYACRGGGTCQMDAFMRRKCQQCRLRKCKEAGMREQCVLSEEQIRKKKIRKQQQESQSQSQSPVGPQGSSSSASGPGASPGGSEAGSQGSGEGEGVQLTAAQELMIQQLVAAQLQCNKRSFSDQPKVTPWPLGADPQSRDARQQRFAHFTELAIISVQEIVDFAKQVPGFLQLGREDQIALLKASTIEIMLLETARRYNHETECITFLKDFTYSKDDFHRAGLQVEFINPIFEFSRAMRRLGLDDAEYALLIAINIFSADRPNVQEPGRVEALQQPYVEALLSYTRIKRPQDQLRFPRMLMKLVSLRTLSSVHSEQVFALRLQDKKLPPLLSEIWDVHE

Protein skinhead-1 = biological target: T4, Protein skinhead-1 (Caenorhabditis elegans, UniProt P34707); type: functional
T4 sequence (P34707 whole entry): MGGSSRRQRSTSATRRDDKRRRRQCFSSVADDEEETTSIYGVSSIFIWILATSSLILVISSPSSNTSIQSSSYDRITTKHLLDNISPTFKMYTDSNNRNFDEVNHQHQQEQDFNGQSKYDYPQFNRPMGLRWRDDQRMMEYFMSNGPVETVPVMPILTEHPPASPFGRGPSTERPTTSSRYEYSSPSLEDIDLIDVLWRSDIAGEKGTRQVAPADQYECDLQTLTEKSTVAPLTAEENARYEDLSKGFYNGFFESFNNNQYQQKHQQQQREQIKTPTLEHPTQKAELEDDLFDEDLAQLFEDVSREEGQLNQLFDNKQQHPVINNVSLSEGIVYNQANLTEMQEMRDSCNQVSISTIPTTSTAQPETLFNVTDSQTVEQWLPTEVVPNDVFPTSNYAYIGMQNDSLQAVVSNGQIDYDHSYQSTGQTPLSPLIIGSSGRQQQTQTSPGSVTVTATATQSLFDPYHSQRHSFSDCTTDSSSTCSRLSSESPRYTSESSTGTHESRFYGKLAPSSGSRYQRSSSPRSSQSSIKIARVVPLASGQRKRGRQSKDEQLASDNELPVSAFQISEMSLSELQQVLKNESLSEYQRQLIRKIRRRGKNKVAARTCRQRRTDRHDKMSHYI

H4 = assay: Luminescence Cell-Based Dose Response HTS to Identify Activators of 5'UTR Stem-Loop Driven Prion Protein mRNA Translation in H4 Neuroglioblastoma Cells. [Related pubchem assays: 1829 (Project Summary), 1814 (Primary HTS)]; type: functional; conditions: Homo sapiens
cells [4] = assay: cells
[5] = Luminescence Cell-Based Dose Response HTS to Identify Activators of Luciferase Translation or Activity in H4 […] Cells. [Related pubchem assays: 1829 (Project Summary), 1814 (Primary HTS)]; type: functional
[6] = biological target: Glucose-6-phosphate 1-dehydrogenase (Homo sapiens, UniProt P11413); assay: inhibition of Homo sapiens G6PD, dose series – biochemical, fluorescence, selectivity assay for P. falciparum G6PD inhibitor project, dose response (AID 504792); type: functional
[7] = viability loss in HepG2 hepatoma cells – cell-based, ATP luminescence, cherry-pick, activator set 2, cytotoxicity control, dose response (AID 1053143); type: functional
[8] = biological target: Dual specificity tyrosine-phosphorylation-regulated kinase 1A (Rattus norvegicus, UniProt Q63470); type: biochemical, Homo sapiens
fMet-Leu-Phe receptor = fMet-Leu-Phe receptor (Homo sapiens, UniProt P21462); assay: formyl peptide receptor binders – dose response (AID 519); type: functional
[9] = Luminescence Cell-Based Dose Confirmation HTS to Identify Inhibitors of Platelet Dense Granule Release. [Related pubchem assays: 1663 (Primary HTS), 1678 (Summary of Project)]; type: functional
[10] = biological target: Luciferin 4-monooxygenase (Photinus pyralis, UniProt P08659); assay: inhibition of purified Photinus pyralis luciferase – biochemical, luminescence, dose response (AID 1891)
Cytochrome P450 2C9 = Cytochrome P450 2C9 (Homo sapiens, UniProt P11712)
Kallikrein-7 = Kallikrein-7 (Homo sapiens, UniProt P49862); assay: Fluorescence Intensity-based biochemical primary high throughput dose response assay to identify activators of kallikrein-7 (K7) zymogen.
[11] = OVCAR-3 cell viability loss – plate reader, dry powder samples, PAX8 inhibitor project, dose response (AID 743044); type: functional, cell-based
Paired box protein Pax-8 = Paired box protein Pax-8 (Homo sapiens, UniProt Q06710); assay: PAX8 transcriptional activity inhibition in RMG-I – RMG-I cells, luciferase, cherry-pick, dose response (AID 687027); type: functional, cell-based;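 note: luciferase reporter driven by Pax8 target thyroperoxidase promoter measured by SteadyGlo luminescence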
[12] = reduced cellular PGC1a acetyl-lysine signal – cell-based, cherry-picked samples, dose response (AID 720514); type: functional;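 note: potency may reflect raised or lowered acetylation signal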
[13] = general mammalian cell viability loss – inhibitor set, cherry-pick, set 2, cytotoxicity control for miR-122 modulator project, dose response (AID 720697); type: functional, cell-based
[14] = activation of miR-122 Renilla sensor silencing – cell-based, Huh7 psiCHECK-miR122, Renilla luciferase, cherry-picked, dose response (AID 651956); type: functional;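 note: huh7 hepatoma cells stably carrying a psiCHECK-2 miR-122 sensor plasmid; renilla luciferase signal reporting endogenous miR-122 activity after 48 h compound exposure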
[15] = toxicity to human hepatoma HepG2 cells – cell-based, cherry-picked samples, cytotoxicity control, dose response (AID 1159577); type: functional
[16] = Dd2 parasite growth inhibition in erythrocytes – SYBR Green, dry powder samples, set 9, dose response (AID 1159568); type: functional, cell-based
[17] = P. falciparum Dd2 growth inhibitors, dose response, SYBR Green, cherry-picked samples (AID 1159567); type: functional, cell-based
[18] = biological target: T5, Trace amine-associated receptor 1 (Homo sapiens, UniProt Q96RJ0); assay: Fluorescence-based cell-based high throughput dose response assay to identify agonists of the human trace amine associated receptor 1 (TAAR1).; type: functional
T5 sequence (Q96RJ0 whole entry): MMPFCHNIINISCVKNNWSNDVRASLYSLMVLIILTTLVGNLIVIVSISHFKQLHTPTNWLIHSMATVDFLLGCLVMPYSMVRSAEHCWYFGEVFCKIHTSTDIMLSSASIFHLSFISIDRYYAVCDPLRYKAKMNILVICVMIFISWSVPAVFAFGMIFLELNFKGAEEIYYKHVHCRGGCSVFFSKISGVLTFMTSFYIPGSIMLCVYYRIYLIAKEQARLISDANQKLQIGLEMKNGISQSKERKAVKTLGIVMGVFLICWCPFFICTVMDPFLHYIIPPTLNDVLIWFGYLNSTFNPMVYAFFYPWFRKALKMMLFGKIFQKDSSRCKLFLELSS

cells [19] = type: functional, cell-based
cells [20] = type: functional, cell-based; remark: listed apart in the source
[21] = biological target: T5, Trace amine-associated receptor 1; assay: Counterscreen for agonists of the human trace amine associated receptor 1 (hTAAR1): Fluorescence-based cell-based high throughput dose response assay to identify hTAAR1 agonist that also desensitize TAAR1 receptor response.; type: functional
[22] = biological target: T6, RNA-binding protein pos-1 (Caenorhabditis elegans, UniProt G5EF15); assay: disruptors of C. elegans POS-1 RNA interaction – biochemical, fluorescence polarization, dose response (AID 1964);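 note: purified POS-1 fused to maltose binding protein made in E. coli; potency of compounds blocking POS-1 binding to fluorescent RNA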
T6 sequence (G5EF15 whole entry): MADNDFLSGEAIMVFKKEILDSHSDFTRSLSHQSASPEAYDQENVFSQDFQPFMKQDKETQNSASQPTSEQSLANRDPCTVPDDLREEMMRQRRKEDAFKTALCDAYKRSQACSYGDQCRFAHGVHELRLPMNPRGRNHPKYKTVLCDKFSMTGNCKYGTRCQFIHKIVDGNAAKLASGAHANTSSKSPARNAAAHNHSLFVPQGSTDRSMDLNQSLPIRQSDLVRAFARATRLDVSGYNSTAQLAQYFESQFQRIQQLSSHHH

Mu-type opioid receptor = Mu-type opioid receptor (Homo sapiens, UniProt P35372); type: functional, cell-based;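 note: U2OS cells with beta-arrestin recruitment to OPRM1 by beta-gal complementation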
[23] = biological target: T7, Zinc finger protein mex-5 (Caenorhabditis elegans, UniProt Q9XUB2); assay: potency of MEX-5 RNA-binding blockers – biochemical, C. elegans, fluorescence polarization, dose response (AID 1960)
T7 sequence (Q9XUB2 whole entry): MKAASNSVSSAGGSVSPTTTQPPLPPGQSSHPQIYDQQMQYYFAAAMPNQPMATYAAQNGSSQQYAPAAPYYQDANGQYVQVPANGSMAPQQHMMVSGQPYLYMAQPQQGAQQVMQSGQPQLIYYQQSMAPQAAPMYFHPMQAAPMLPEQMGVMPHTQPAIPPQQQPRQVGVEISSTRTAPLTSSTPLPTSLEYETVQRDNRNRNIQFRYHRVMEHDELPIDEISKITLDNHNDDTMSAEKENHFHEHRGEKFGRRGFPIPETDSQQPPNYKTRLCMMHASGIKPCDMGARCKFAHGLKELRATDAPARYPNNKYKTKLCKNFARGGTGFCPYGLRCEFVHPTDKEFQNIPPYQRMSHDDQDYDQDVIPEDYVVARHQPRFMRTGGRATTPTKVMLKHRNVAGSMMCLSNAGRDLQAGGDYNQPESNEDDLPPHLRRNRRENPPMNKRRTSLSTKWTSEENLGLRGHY

[24] = biological target: 5-hydroxytryptamine receptor 2A (Mus musculus, UniProt P35363); type: functional, cell-based;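 note: CHO-K1 cells with tagged receptor and beta-arrestin; agonist potency measured as compound-induced activation of the receptor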
Sequence of 5-hydroxytryptamine receptor 2A (P35363 whole entry): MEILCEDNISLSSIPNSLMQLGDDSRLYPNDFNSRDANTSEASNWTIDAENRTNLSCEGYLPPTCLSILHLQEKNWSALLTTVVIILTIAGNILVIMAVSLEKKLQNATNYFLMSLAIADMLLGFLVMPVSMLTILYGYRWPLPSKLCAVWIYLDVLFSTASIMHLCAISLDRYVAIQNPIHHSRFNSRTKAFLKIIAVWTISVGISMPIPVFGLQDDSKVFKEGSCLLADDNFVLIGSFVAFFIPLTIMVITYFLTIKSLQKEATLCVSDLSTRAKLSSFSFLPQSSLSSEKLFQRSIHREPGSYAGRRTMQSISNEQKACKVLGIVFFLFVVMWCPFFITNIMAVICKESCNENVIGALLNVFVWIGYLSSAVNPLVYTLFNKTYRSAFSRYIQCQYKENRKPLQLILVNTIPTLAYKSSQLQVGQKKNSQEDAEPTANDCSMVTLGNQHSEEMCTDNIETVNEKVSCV

Sequence of fMet-Leu-Phe receptor (P21462 whole entry): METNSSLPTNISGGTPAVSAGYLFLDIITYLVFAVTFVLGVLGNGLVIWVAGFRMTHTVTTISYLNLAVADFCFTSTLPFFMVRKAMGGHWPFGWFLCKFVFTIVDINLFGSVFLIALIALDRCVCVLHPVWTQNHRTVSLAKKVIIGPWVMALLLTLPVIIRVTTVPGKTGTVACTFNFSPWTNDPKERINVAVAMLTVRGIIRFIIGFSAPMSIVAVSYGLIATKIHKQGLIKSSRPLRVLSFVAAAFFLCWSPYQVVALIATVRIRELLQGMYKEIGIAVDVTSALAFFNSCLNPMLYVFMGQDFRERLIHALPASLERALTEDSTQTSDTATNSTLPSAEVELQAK
Sequence of Kallikrein-7 (P49862 whole entry): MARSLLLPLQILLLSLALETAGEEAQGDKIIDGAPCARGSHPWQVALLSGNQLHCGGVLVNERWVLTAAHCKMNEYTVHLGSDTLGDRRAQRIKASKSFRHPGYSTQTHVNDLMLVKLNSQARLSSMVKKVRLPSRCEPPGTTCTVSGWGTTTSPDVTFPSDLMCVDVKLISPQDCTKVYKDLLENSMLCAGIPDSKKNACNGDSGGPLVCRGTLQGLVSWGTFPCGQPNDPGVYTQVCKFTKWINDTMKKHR
Sequence of Paired box protein Pax-8 (Q06710 whole entry): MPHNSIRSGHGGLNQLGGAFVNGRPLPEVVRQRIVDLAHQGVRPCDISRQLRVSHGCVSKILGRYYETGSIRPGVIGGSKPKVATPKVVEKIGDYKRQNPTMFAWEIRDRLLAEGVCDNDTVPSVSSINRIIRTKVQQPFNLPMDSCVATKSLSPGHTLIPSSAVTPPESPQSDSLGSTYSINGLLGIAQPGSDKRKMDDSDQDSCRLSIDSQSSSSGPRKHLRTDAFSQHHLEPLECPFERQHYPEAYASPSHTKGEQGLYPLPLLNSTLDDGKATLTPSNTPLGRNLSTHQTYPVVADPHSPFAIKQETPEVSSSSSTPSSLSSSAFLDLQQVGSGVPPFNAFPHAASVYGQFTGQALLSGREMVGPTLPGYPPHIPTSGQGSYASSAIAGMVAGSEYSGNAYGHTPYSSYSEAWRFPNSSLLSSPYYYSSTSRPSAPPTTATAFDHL
Sequence of Caspase-7 (P55210 24-198 limits assumed): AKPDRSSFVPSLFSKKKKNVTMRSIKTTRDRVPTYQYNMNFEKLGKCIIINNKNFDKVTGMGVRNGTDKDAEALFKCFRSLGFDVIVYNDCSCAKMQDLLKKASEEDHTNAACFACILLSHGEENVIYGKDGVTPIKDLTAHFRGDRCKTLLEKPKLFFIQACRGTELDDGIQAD
Sequence of Caspase-7 (P55210 207-303 limits assumed): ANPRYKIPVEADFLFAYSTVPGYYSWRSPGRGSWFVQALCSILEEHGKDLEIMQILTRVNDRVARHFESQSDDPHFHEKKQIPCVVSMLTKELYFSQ
Sequence of Glucose-6-phosphate 1-dehydrogenase (P11413 whole entry): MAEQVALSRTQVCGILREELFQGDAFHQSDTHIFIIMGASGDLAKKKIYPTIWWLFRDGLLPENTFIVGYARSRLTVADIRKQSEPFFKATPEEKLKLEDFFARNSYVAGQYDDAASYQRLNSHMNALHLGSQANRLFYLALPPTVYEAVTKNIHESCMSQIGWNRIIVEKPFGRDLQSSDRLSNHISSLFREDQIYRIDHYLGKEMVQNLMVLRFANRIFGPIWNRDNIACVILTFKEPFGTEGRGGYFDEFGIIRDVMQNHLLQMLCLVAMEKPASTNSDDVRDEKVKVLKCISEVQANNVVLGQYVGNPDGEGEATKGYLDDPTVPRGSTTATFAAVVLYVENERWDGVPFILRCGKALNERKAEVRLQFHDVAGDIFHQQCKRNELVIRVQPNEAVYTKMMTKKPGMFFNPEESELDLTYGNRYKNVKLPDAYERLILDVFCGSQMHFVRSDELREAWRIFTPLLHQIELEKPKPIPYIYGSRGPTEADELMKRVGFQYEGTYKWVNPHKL
Sequence of Cytochrome P450 2C9 (P11712 whole entry): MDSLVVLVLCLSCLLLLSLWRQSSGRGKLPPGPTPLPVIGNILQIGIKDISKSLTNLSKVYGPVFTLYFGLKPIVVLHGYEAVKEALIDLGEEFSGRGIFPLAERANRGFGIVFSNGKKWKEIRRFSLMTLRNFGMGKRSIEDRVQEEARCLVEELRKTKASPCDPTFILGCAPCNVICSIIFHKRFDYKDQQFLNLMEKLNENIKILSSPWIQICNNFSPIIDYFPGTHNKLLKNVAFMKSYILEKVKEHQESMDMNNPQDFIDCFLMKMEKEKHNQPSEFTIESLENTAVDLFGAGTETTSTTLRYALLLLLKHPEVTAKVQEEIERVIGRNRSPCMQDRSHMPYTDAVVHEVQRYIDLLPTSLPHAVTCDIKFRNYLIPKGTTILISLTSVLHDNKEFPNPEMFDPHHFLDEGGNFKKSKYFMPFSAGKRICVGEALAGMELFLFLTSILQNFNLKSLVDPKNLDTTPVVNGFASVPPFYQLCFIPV
Sequence of Induced myeloid leukemia cell differentiation protein Mcl-1 (Q07820 whole entry, the tested form may be a part): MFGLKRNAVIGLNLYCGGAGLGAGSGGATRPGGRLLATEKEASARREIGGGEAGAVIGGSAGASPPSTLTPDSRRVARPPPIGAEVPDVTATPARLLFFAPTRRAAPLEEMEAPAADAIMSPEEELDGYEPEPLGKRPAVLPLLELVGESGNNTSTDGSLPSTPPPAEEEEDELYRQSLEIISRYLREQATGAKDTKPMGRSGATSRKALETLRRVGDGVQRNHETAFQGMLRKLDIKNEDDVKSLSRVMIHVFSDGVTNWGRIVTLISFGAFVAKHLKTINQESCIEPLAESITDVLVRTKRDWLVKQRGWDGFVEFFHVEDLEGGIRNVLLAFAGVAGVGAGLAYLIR
Sequence of Luciferin 4-monooxygenase (P08659 whole entry): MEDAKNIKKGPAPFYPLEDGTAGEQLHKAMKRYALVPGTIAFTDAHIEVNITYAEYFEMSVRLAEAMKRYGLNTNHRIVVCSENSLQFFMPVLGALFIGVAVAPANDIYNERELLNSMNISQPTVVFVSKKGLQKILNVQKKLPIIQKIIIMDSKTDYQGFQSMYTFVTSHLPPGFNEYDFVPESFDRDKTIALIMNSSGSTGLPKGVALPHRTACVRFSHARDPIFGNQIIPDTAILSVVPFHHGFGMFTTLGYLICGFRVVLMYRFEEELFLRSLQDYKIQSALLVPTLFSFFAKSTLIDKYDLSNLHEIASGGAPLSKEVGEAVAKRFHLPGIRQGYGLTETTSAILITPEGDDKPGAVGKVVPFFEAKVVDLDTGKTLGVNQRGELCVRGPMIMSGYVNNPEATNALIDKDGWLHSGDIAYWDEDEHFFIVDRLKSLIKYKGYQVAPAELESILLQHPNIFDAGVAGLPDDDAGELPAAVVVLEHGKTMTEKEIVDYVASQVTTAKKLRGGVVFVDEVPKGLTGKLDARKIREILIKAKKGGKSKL
Sequence of Mu-type opioid receptor (P35372 whole entry): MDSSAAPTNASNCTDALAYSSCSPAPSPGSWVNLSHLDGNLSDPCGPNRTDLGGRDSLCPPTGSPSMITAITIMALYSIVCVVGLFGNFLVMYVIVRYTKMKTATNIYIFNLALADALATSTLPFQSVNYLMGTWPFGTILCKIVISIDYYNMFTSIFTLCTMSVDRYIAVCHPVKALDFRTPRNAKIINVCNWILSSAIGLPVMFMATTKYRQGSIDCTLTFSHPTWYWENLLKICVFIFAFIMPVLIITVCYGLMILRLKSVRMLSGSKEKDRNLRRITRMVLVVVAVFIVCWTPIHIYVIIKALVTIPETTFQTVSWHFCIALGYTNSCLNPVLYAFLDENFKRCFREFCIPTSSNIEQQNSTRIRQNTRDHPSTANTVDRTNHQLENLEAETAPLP

CCCSC1=N/C(=C\c2ccc([N+](=O)[O-])o2)C(=O)S1
IC50 [1]: 4.92 µM (active) | AC50 (Caspase-6): 2.93 µM (active) | AC50 (Caspase-7): 45.9 µM (active) | IC50 [2]: 3.88 µM (active)

Cc1nc(NC(=O)c2cccs2)ccc1Br
EC50 [3]: > 67.5 µM (inactive) | IC50 (Protein skinhead-1): 24.4 µM (active) | EC50 (H4): 0.129 µM (active) | EC50 (cells [4]): > 67.5 µM (inactive) | EC50 [5]: 13.2 µM (active)

CN1/C(=C\C(=O)c2cccs2)Sc2ccccc21
EC50 [3]: > 67.5 µM (inactive) | EC50 (cells [4]): > 67.5 µM (inactive) | IC50 [6]: > 80 µM (inactive)

O=[N+]([O-])c1ccccc1-c1cc(-c2ccccc2O)n[nH]1
AC50 [7]: 26 µM (active) | AC50 [8]: 7.59 µM (active)

COc1cccc(C(=O)C2=C(O)C(=O)N(Cc3cccnc3)C2c2ccco2)c1 (configuration not stated)
Ki (fMet-Leu-Phe receptor): > 66.7 µM (inactive)

CCOC(=O)c1sc(NC(=O)c2sccc2C)cc1C
EC50 [9]: 3.04 µM (active) | AC50 [7]: 12.8 µM (active) | EC50 [10]: 0.409 µM (active)

COc1ccc(-c2c(C)oc3c(CN4CCN(CCO)CC4)c(O)ccc3c2=O)cc1OC
AC50 (Cytochrome P450 2C9): 0.447 µM (inconclusive) | Ki (fMet-Leu-Phe receptor): > 66.7 µM (inactive)

CN(C(=O)c1cc2c(=O)n3ccccc3nc2s1)C1CCCCC1
EC50 (Kallikrein-7): 24.8 µM (inactive)

COc1ccc(C#Cc2ccc([C@H]3[C@@H](CO)N4CCCCN(C(=O)Nc5ccccc5)C[C@H]34)cc2)cc1
AC50 [11]: 30.4 µM (active) | AC50 (Paired box protein Pax-8): 12.5 µM (active) | AC50 [12]: 16.4 µM (active) | AC50 [13]: 7.88 µM (active) | AC50 [14]: 6.04 µM (active)

COc1cccc(S(=O)(=O)N2CCCCN3[C@@H](CO)[C@@H](c4ccc(C#CCC(C)C)cc4)[C@@H]3C2)c1
AC50 [11]: 43.3 µM (active) | AC50 [15]: 11.8 µM (active) | AC50 [16]: 1.48 µM (active) | AC50 [17]: 0.991 µM (active) | AC50 (Paired box protein Pax-8): 14.6 µM (active)

O=S(=O)(Cc1ccccc1)N1CCCCN2[C@@H](CO)[C@H](c3ccc(C#Cc4ccccc4)cc3)[C@@H]2C1
AC50 [15]: 8.93 µM (active) | AC50 [17]: 4.25 µM (active)

CN1C[C@H](CO)C=C2c3cccc4[nH]cc(c34)C[C@H]21
EC50 [18]: 7.63 µM (active) | EC50 (cells [19]): > 29.9 µM (inactive) | IC50 (cells [20]): > 29.9 µM (inactive) | EC50 (Kallikrein-7): > 7.72 µM (active) | IC50 [21]: 4.58 µM (active) | EC50 [22]: 20.6 µM (active) | EC50 (Mu-type opioid receptor): 92.5 µM (inactive) | EC50 [23]: 53.2 µM (inconclusive) | EC50 [24]: 0.018 µM (active)
